Test results reported in patent US6331555A, “Treatment of platelet derived growth factor related disorders such as cancers” (priority 1999, dated 2001).
Where two headings read alike, the source gives them in different places.

Tests used:
U1242 cells = experiment: Cytotoxicity in U1242 cells, MTT; format: cell-based, human; conditions: for CC50: Homo sapiens, read-out: CYTOXICITY MTT U1242 LD50, heading: CYTOXICITY MTT U1242 LD50; for LD50 compared to A10: MTT or LDH
Description: The cytotoxicity of each drug was also determined. The cells were plated as described above. Following incubation with drug, cell survival was measured by an MTT assay as described by Mossman J. Immunol. Methods 65:55-63 (1983), or by measuring the amount of LDH released (Korzeniewski and Callewaert, J. Immunol. Methods 64:313 (1983); Decker and Lohmann-Matthes, J. Immunol. Methods 115:61 (1988) .

PDGFR = PDGFR (Homo sapiens, UniProt P09619); experiment: Receptor tyrosine kinase inhibition, PDGFR; format: cell-based; parameters: U1242 (PDGF-β receptor); host or cells: U1242 glioma cells (ELISA); conditions: read-out: PDGFR IC50
Description: For western blotting, cells were plated in 2 mL growth medium into 6-well dishes (500,000 cells per well) and allowed to attach overnight. […] The plates were then incubated overnight at 37° C., ambient CO2. […] After a 7 min incubation at room temperature with ligand, the plates were put on ice and washed three times with 1 mL ice-cold PBS plus 1 mM orthovanadate. Lysis was achieved by pipetting cells in 0.5 mL of buffer containing 50 mM Tris, pH 7.4, 10% glycerol, 1% NP-40, 2 mM EDTA, 1 mM sodium vanadate (Na3 VO4), 10 mM pyrophosphate, 1 mM PMSF, […]. A 300 μL aliquot of each lysate was immediately added to 100 μL 4×Laemmli sample buffer ([…] Tris pH 6.9, 20% glycerol, 7% SDS, 5 mM EDTA, 5% β-mercaptoethanol) containing phosphatase inhibitors, 2 mM Na3 VO4 and 10 mM pyrophosphate. Samples were boiled for 5 min, frozen in dry ice-ethanol, and stored at -80° C. […] The integrity of the protein-to-membrane transfer was determined by staining with 1% Ponceau S in 5% acetic acid for 5 min. After destaining in several distilled water rinses, the membrane was soaked overnight in blocking buffer containing 5% milk in Tris-buffered saline, 0.05% Tween 20. Phosphotyresine was detected by incubating the membrane (1 hr at room temperature) with an anti-phosphotyosine antiserum diluted in blocking buffer at 1:3000. […] The antibodies were visualized using ECL reagent from Amersham and by exposure to Fuji RX film.
For ELISA assays, cells were grown to 80-90% confluency in growth medium and seeded in 96-well tissue culture plates in 0.5% serum at 25,000 to 30,000 cells per well. After overnight incubation in 0.5% serum-containingmedium, cells were changed to serum-free medium and treated with test compound for 2 hr in a 5% CO2, 37° C. incubator. […] Lysates were incubated with shaking for 1 hr at room temperature. The plates were washed with TBST four times and then incubated with polyclonol anti-phosphotyrosine antibody at room temperature for 30 min. Excess anti-phosphotyrosine antibody was removed by rinsing the plate with TBST four times. Goat anti-rabbit IgG antibody was added to the ELISA plate for 30 min at room temperature followed by rinsing with TBST four more times.
The ability of different compound to inhibit different receptor tyrosine kinases was tested.

C6 glioma cells = experiment: C6 glioma SC xenograft in mice; format: in vivo; conditions: for inhibition in vivo at 15 mg/kg: Rattus norvegicus, C6 glioma, sc, read-out: C6 in vivo EFFICACY
Method in brief: (§1)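 C6 (3×10^6) or SKOV-3 (1×10^7) cells in PBS were implanted into the hind flank of female Balb/c nu/nu mice on Day 0; U87MG and U118MG went into athymic mice. Tumors were caliper-measured over 3–6 weeks, with volume as length×width×height. P values came from Student's t-test.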

[1] = C6 glioma SC xenograft in mice; format: in vivo; conditions: rat, in vivo, ip; for mortality at 336 h: 15 mg/kg
Method in brief: as §1

PDGF-R (U1242) = target: T1, PDGF-R (U1242) (Homo sapiens, UniProt P09619); experiment: U1242 kinase (PDGF-R activity); format: cell-based
T1 construct: U1242 (PDGF-β receptor); host or cells: U1242 MG glioma cells
Method in brief: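 For ELISA, cells were held overnight in 0.5% serum, then treated with compound for 2 h at 37 °C in serum-free medium. Lysate phosphotyrosine was detected with polyclonal anti-phosphotyrosine antibody. In western blots, cells were stimulated with ligand for 7 min at room temperature and probed with anti-phosphotyrosine (1:3000).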

C6 cells = experiment: Intracerebral C6 tumor, athymic rats, survival; format: in vivo, rat; conditions: IC C6, athymic rats
Description: FIG. 5. In two separate experiments, C6 cells (5×10^4 cells in 20 μL [Expt #1] or 5 μL [Expt #2]) were implanted into the cerebrum of athymic rats. […] V=vehicle control. n=7 to 8 animals per group. * P=0.0002; ** P=0.0003 compared to vehicle control.
For the rat IC model, rats (Wistar, Sprague Dawley, Fisher 344, or athymic R/Nu; approximately 200 g) were anesthetized by an IP injection of 100 mg/kg Ketaset (ketamine hydrochloride; Aveco, Fort Dodge, Iowa) and 5 mg/kg Rompun (xylazine, 2% solution; Bayer, Germany). After onset of anesthesia, the scalp was shaved and the animal was oriented in a stereotaxic apparatus (Stoelting, Wood Dale, Ill.). The skin at the incision site was cleaned 3 times with alternating swabs of 70% ethanol and 10% Povidone-Iodine. A median 1.0-1.5 cm incision was made in the scalp using a sterile surgical blade. The skin was detached slightly and pulled to the sides to expose the sutures on the skull surface. A dental drill (Stoelting, Wood Dale, Ill.) was used to make a small (1-2 mm diameter) burrhole in the skull approximately 1 mm anterior and 2 mm lateral to the bregma. The cell suspension was drawn into a 50 μL Hamilton syringe fitted with a 23 or 25 ga standard bevel needle. […]

[2] = W = done in Western assay, read-out: U1242 KINASE IC50 (W)

T1 sequence (P09619 33-1106): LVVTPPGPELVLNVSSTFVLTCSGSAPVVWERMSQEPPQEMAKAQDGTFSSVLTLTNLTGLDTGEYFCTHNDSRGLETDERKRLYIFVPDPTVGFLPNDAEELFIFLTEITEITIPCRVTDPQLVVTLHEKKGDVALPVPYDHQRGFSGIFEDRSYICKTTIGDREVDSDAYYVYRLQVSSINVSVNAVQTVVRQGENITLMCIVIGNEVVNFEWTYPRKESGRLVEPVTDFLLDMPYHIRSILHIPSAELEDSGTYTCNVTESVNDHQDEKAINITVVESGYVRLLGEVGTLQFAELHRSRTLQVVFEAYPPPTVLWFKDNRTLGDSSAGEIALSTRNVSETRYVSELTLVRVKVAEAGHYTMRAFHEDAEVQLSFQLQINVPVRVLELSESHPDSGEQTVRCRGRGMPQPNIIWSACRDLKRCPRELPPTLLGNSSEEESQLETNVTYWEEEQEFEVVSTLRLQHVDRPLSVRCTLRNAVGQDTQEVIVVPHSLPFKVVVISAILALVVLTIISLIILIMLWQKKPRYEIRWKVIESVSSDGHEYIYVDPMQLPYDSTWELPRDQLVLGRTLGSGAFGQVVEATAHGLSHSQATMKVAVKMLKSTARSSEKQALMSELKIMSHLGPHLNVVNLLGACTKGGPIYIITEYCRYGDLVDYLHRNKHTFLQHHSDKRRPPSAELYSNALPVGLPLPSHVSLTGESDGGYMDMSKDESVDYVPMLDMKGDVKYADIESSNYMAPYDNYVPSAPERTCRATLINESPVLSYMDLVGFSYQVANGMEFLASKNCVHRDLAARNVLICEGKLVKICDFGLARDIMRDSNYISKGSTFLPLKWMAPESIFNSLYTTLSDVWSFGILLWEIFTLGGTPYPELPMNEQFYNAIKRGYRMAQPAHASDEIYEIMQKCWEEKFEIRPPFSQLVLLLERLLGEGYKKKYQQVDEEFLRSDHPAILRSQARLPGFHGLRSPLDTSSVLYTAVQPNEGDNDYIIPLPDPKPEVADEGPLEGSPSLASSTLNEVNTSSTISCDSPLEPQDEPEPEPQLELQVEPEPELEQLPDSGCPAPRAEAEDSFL
Sequence of PDGFR (P09619 33-1106): as above

Which CC50 (U1242 cells) does the source give for `N#CC(=Cc1c[nH]c2ccccc12)C(N)=S` [Compound D11] here?
The CC50 was 90 µM.

With `c1ccc(-c2cnc3cc4ccccc4cc3n2)cc1` [Compound G22] as the molecule, how does the IC50 (PDGFR) read?
Its IC50 is 14 µM.

What about the “C6 in vivo EFFICACY” value (C6 glioma cells; at 20 mg/kg) of the same molecule?
Its value is “no effect”.

What about the mortality ([1]; 20 mg/kg) of the same molecule?
Its mortality is 0%.

What about the IC50 (PDGF-R (U1242); [2]) of the same molecule?
Its IC50 is 0.9 µM.

And the IC50 (PDGF-R (U1242); read-out: U1242 KINASE IC50)?
The IC50 was 14 µM.

For `CN(C)CCCn1cc(C=C(C#N)c2[nH]nc(N)c2C#N)c2ccccc21` [Compound D15], which CC50 (U1242 cells) is on record?
Its CC50 is 80 µM.

Which IC50 (PDGF-R (U1242); [2]) does the source give for `O=c1c2ccccc2nc(C=Cc2ccc(O)c(O)c2)n1CCO` [Compound F10] here?
Its IC50 is 45 µM.

Which IC50 (PDGFR) does the source give for `N#CC(=Cc1c[nH]c2ccccc12)c1[nH]nc(N)c1C#N` [Compound D14] here?
The IC50 was 47 µM.

Which survival (C6 cells) does the source give for `Cc1oncc1C(=O)Nc1ccc(C(F)(F)F)cc1` [Compound A10, 5-methylisoxazole-4 carboxylic acid-(4-trifluromethyl)-anilide] here?
The survival was “slight but significant positive effect on the survival”.

And the “inhibition in tumor growth” value (C6 glioma cells; 15 mg/kg/day (DMSO), after 20 days)?
The value was “greater than 90%”.

What about the “% Inhibition” value (C6 glioma cells; 15 mg/kg/day, DMSO) of the same molecule?
Its value is 90%.

What about the “% Inhibition” value (C6 glioma cells; 15 mg/kg/day, PBTE) of the same molecule?
Its value is 92%.

And the “% Inhibition” value (C6 glioma cells; 20 mg/kg (DMSO), 2 days)?
Its value is 77%.

And the “% Inhibition” value (C6 glioma cells; 20 mg/kg (DMSO), 4 days)?
Its value is 60%.

And the “% Inhibition” value (C6 glioma cells; 20 mg/kg (PBTE:D5W), daily)?
The value was over 95%.

What about the “% Inhibition” value (C6 glioma cells; 20 mg/kg, PBTE:D5W) of the same molecule?
The value was over 95%.

And the “% Inhibition” value (C6 glioma cells; 20 mg/kg/day, DMSO)?
Its value is 95%.

And the “% Inhibition” value (C6 glioma cells; 20 mg/kg/day, PBTE)?
Its value is over 95%.

What about the “% Inhibition” value (C6 glioma cells; 30 mg/kg (DMSO), 2 days) of the same molecule?
Its value is 91%.

What about the “% Inhibition” value (C6 glioma cells; 30 mg/kg (DMSO), 3 days) of the same molecule?
The value was 87%.

And the “% Inhibition” value (C6 glioma cells; 40 mg/kg (PBTE), 2 days)?
The value was over 95%.

What about the “% Inhibition” value (C6 glioma cells; 40 mg/kg/2 days, PBTE) of the same molecule?
Its value is over 95%.

What about the “% Inhibition” value (C6 glioma cells; 60 mg/kg (PBTE), weekly) of the same molecule?
Its value is 51%.

What about the “% Inhibition” value (C6 glioma cells; 100 mg/kg (PBTE), weekly) of the same molecule?
The value was 63%.

And the efficacy of formulations (C6 glioma cells; PBTE, PBTE:D5W and DMSO)?
The efficacy of formulations was “equivalent in vivo inhibition of tumor growth”.

And the “% Inhibition” value (C6 glioma cells; nu/nu, 20 mg/kg/day, day 21)?
The value was over 95%.

What about the “% Inhibition” value (C6 glioma cells; nu/nu†, 20 mg/kg/day, day 18, delayed start) of the same molecule?
Its value is 84%.

And the “In Vivo inhibition” value (C6 glioma cells; xenografted athymic mice)?
The value was 95%.

Which “LD50 compared to A10” value (U1242 cells) does the source give for `COc1cc2ncc(-c3ccccc3)nc2cc1OC` [Compound G14] here?
The value was “LD50 less than A10”.

And the inhibition in vivo at 15 mg/kg (C6 glioma cells; at 15 mg/kg)?
Its inhibition in vivo at 15 mg/kg is 36%.

And the mortality at 336 h [1]?
Its mortality at 336 h is 0%.

And the IC50 (PDGF-R (U1242); [2])?
The IC50 was 0.8 µM.

What does the source list for `Cc1cc2ncc(-c3ccccc3)nc2cc1C` [Compound G13]?
CC50 (U1242 cells): 100 µM; LD50 compared to A10 (U1242 cells): LD50 less than A10; inhibition in vivo at 15 mg/kg (C6 glioma cells): 12%; mortality at 336 h [1]: 0%
